From US20040258754A1, “Compositions for oral administration of camptothecin and its analogs” (priority 2003, published 2004)
Values after ≈ are worked out from the molar mass of the structure shown. Read-outs that look alike come from different tables or passages of the source.

Key:
[1] = for Relative Peak Area: 37° C.
[2] = Solubility of camptothecin in formulations with Pluronic P85; format: physicochemical; settings: aqueous with cosolvent or surfactant or cyclodextrin, thermodynamic from solid, read-out: Camptothecin concentration (solubility)
Method: Calibration. Fluorescence of 0.300 mL samples of camptothecin solutions in methanol containing between 0.00003 and 0.0005 mg/mL, in triplicates on Helma Quarz plate, was measured using Bio-Tek FL600 fluorescence plate reader with excitation filter wavelength/bandwidth 360/40 nm and emission filter 530/25 nm, sensitivity 70. The average fluorescence was fitted to a linear equation and gave: […]
where C—camptothecin concentration [mg/mL].
Solubility. 0.1 mg camptothecin samples, in triplicates, and 1 mL of the respective buffer or carrier solution, were incubated at room temperature with shaking for 1 hour. The samples were then filtered through Acrodisc CR, PTFE Syringe filter, 4 mm diameter, 0.45 μm pore size Gelman part No. 4472. The filtrate was diluted 100 times with methanol, and the final concentration of camptothecin was determined by fluorescence measurement using the above-described calibration.

[3] = Loading (uptake) of drugs into Pluronic-PAA microgels; format: physicochemical; settings: 1 wt % microgel suspension pH 7.0
Method: The beads were used in order to enhance the area of contact between the microgel suspension and drug. The beads were separated into several fractions. One fraction was added to a polypropylene vial containing the microgel suspension (0.5 mL) and the vial was gently shaken in a horizontal position in an environmental chamber at 20 or 37° C. Then the beads were recovered from the suspension by using a magnet. The beads were dried under vacuum and placed into an appropriate solvent (0.5 mL), where the solute was extracted after shaking overnight. The solvent fraction was assayed for the solute concentration using HPLC. The control fraction of loaded beads was subjected to the extraction without equilibration with the microgel suspension. The solute concentrations were measured in triplicate using the HPLC system described above. […] The peak area was integrated and used to calculate camptothecin concentration using standard calibration curves.

[4] = cited from earlier work
[5] = biological target: human serum albumin (HSA) (Homo sapiens, UniProt P02768); settings: pH 7.4; cited from earlier work
Sequence of human serum albumin (HSA) (P02768 25-609): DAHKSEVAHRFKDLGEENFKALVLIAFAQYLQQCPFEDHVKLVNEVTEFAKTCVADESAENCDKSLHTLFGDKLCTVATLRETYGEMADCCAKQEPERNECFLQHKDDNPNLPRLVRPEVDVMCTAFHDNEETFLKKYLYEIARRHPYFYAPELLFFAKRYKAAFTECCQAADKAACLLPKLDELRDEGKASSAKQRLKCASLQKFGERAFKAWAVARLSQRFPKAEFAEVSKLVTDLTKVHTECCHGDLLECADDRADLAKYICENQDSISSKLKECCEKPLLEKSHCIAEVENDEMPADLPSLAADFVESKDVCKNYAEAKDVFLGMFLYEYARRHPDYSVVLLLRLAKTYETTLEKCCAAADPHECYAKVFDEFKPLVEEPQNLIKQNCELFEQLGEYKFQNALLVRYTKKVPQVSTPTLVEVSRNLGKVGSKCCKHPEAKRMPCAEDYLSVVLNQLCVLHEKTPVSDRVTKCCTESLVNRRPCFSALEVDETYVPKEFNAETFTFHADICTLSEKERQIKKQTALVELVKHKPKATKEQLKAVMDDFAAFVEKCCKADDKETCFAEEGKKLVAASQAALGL

[6] = CPT-11 in human serum Without Gel, exposure 10 min
[7] = CPT-11 loaded in Pluronic-PAA-EGDMA gel (F127-PAA) in human serum, exposure 1 h

Which “Relative Peak Area” value [1, 6] does the source give for CCc1c2c(nc3ccc(OC(=O)N4CCC(NCCCCC(=O)O)CC4)cc13)-c1cc3c(c(=O)n1C2)COC(=O)[C@]3(O)CC [APC-L] here?
Its value is 0.778.

What about the “Relative Peak Area” value [1, 7] of the same compound?
The value was “not detected”.

With CCc1c2c(nc3ccc(OC(=O)N4CCC(N5CCCCC5)CC4)cc13)-c1cc3c(c(=O)n1C2)COC(=O)[C@]3(O)CC [CPT-11, irinotecan] as the compound, how does the “metabolism in human serum without encapsulation into gels” value ([1]; male, human, 15 min, 0.013 mg/mL) read?
Its value is “a substantial portion of CPT-11 was metabolised”.

Which solubility at 1 h ([2]; 1% Pluronic P85 in PBS, P85 1% in PBS pH 7.2, room temperature) does the source give for CC[C@@]1(O)C(=O)OCc2c1cc1n(c2=O)Cc2cc3ccccc3nc2-1 [Camptothecin] here?
Its solubility at 1 h is 3.1 ± 1.5 µg/mL (≈ 8.9 µM).

What about the solubility at 1 h ([2]; 3% Pluronic P85 in PBS, P85 3% in PBS pH 7.2, room temperature) of the same compound?
The solubility at 1 h was 4.9 ± 1.5 µg/mL (≈ 14.1 µM).

And the “Uptake ± S.D.” value ([3]; F127-based gel, 20° C.)?
The value was 13.4 ± 1.54 (20° C.) μmol/g gel.

And the “Uptake ± S.D.” value ([3]; F127-based gel, 37° C.)?
Its value is 16.3 ± 1.86 (37° C.) μmol/g gel.

And the “Uptake ± S.D.” value ([3]; L92-based gel, 20° C.)?
The value was 16.2 ± 1.87 (20° C.) μmol/g gel.

And the “Uptake ± S.D.” value ([3]; L92-based gel, 37° C.)?
The value was 19.5 ± 2.33 (37° C.) μmol/g gel.

What about the “Log P” value [4] of the same compound?
Its value is 0.87.

What about the “higher affinity of HSA for the carboxylate form than for the alpha-hydroxy lactone form” value [5] of the same compound?
The value was 150 fold.

Which results are given for CCc1c2c(nc3ccc(O)cc13)-c1cc3c(c(=O)n1C2)COC(=O)[C@]3(O)CC [SN28-L]?
Relative Peak Area [1, 6]: 1.30; Relative Peak Area [1, 7]: not detected

Which results are given for CCc1c2c(nc3ccc(O)cc13)-c1cc(C(O)(CC)C(=O)O)c(CO)c(=O)n1C2 (centres unmarked) [SN28-c]?
Relative Peak Area [1, 6]: 1.18; Relative Peak Area [1, 7]: not detected

With CC(=O)O[C@H]1C(=O)[C@@]2(C)[C@H]([C@H](OC(=O)c3ccccc3)[C@]3(O)C[C@H](OC(=O)[C@H](O)[C@@H](NC(=O)c4ccccc4)c4ccccc4)C(C)=C1C3(C)C)[C@]1(OC(C)=O)CO[C@@H]1C[C@@H]2O [Taxol] as the compound, how does the “Uptake ± S.D.” value ([3]; F127-based gel, 20° C.) read?
Its value is 2.27 ± 0.90 (20° C.) μmol/g gel.

What about the “Uptake ± S.D.” value ([3]; F127-based gel, 37° C.) of the same compound?
Its value is 6.97 ± 0.87 (37° C.) μmol/g gel.

What about the “Uptake ± S.D.” value ([3]; L92-based gel, 20° C.) of the same compound?
Its value is 3.65 ± 0.43 (20° C.) μmol/g gel.

What about the “Uptake ± S.D.” value ([3]; L92-based gel, 37° C.) of the same compound?
Its value is 7.25 ± 0.74 (37° C.) μmol/g gel.

For C[C@]12CC[C@@H]3c4ccc(O)cc4CC[C@H]3[C@@H]1CC[C@@H]2O [β-Estradiol], which “Log P” value [4] is on record?
The value was 3.86.
